Measurements from patent US9512139B2, “Conformationally constrained, fully synthetic macrocyclic compounds” (POLYPHOR AG, priority 2009, dated 2016).
Like-named read-outs stand apart in the source and are kept apart here.

Conditions: amide bond

With `CN1CCC(=O)N2C[C@H](NC(=O)OC(C)(C)C)C[C@H]2COc2ccc(F)cc2C(=O)N(C)[C@H](C(=O)OCc2ccccc2)CCC1=O` the ring closure, yield of all isomers (from CNCCC(=O)N1C[C@H](NC(=O)OC(C)(C)C)C[C@H]1COc1ccc(F)cc1C(=O)N(C)[C@@H](CCC(=O)O)C(=O)OCc1ccccc1, T3P / i-Pr2NEt, CH2Cl2, 10.6 mM) was 82%.
Molecule `CC(C)(C)OC(=O)N[C@@H]1C[C@H]2COc3ccc(Br)cc3C(=O)NC3(CCCC3)C(=O)N[C@@H](Cc3ccc4ccccc4c3)CC(=O)N2C1` has a ring closure, yield of all isomers (from CC(C)(C)OC(=O)N[C@H]1CN[C@H](COc2ccc(Br)cc2C(=O)NC2(C(=O)N[C@H](CC(=O)O)Cc3ccc4ccccc4c3)CCCC2)C1, T3P, i-Pr2NEt, CH2Cl2, 1.0 mM, 25.0 °C, 2.0 h) of 68%.
With `CN1C[C@H](NC(=O)OCc2ccccc2)C(=O)N(C)CC(=O)N2C[C@@H](NC(=O)OCC[Si](C)(C)C)C[C@H]2COc2cccc(c2)C1=O` the ring closure, yield of all isomers (from CN(C[C@H](NC(=O)OCc1ccccc1)C(=O)N(C)CC(=O)O)C(=O)c1cccc(OC[C@@H]2C[C@H](NC(=O)OCC[Si](C)(C)C)CN2)c1, FDPP, DMF, 9.73 mM) was 63%.
`CN1CC(=O)N2C[C@H](NC(=O)OC(C)(C)C)C[C@H]2COc2ccc(F)cc2C(=O)N(C)[C@H](C(=O)OCc2ccccc2)CCC1=O` gave a ring closure, yield of all isomers (from CNCC(=O)N1C[C@H](NC(=O)OC(C)(C)C)C[C@H]1COc1ccc(F)cc1C(=O)N(C)[C@@H](CCC(=O)O)C(=O)OCc1ccccc1, T3P, CH2Cl2, 10.5 mM, 25.0 °C, 20.0 h) of 87%.
Work on `CN1CCC[C@H](NC(=O)OCc2ccccc2)C(=O)N2C[C@@H](OCc3ccc(Br)cc3)C[C@H]2COc2cccc(c2)C1=O` yielded a ring closure, yield of all isomers (from CN(CCC[C@H](NC(=O)OCc1ccccc1)C(=O)O)C(=O)c1cccc(OC[C@@H]2C[C@H](OCc3ccc(Br)cc3)CN2)c1, T3P, CH2Cl2, 5.5 mM, 25.0 °C, 20.0 h) of 57%.
Molecule `CN1CCC[C@H](NC(=O)OCc2ccccc2)C(=O)N2C[C@@H](Cc3ccccc3)C[C@H]2COc2cccc(c2)C1=O` has a ring closure, yield of all isomers (from CN(CCC[C@H](NC(=O)OCc1ccccc1)C(=O)O)C(=O)c1cccc(OC[C@@H]2C[C@H](Cc3ccccc3)CN2)c1, T3P, CH2Cl2, 4.5 mM, 25.0 °C, 0.5 h) of 37%.
`CN1CC(=O)N2CCN(C(=O)OC(C)(C)C)C[C@H]2COc2ccc(F)cc2C(=O)N(C)[C@H](C(=O)OCc2ccccc2)CCC1=O` gave a ring closure, yield of all isomers (from CN(CC(=O)O)C(=O)CC[C@@H](C(=O)OCc1ccccc1)N(C)C(=O)c1cc(F)ccc1OC[C@@H]1CN(C(=O)OC(C)(C)C)CCN1, T3P / i-Pr2NEt, CH2Cl2, 10.0 mM) of 90%.
Work on `CN1CCC[C@H](NC(=O)OCc2ccccc2)C(=O)N2C[C@@H](Oc3ccccc3)C[C@H]2COc2cccc(c2)C1=O` yielded a ring closure, yield of all isomers (from CN(CCC[C@H](NC(=O)OCc1ccccc1)C(=O)O)C(=O)c1cccc(OC[C@@H]2C[C@H](Oc3ccccc3)CN2)c1, FDPP, DMF, 5.7 mM, 25.0 °C, 20.0 h) of 63%.
For `CN1CC(=O)N2C[C@H](NC(=O)OC(C)(C)C)C[C@H]2COc2ccc(cc2)C(=O)N(C)[C@H](C(=O)OCc2ccccc2)CCC1=O`, the ring closure, yield of all isomers (from CNCC(=O)N1C[C@H](NC(=O)OC(C)(C)C)C[C@H]1COc1ccc(C(=O)N(C)[C@@H](CCC(=O)O)C(=O)OCc2ccccc2)cc1, T3P, i-Pr2NEt, CH2Cl2, 1.05 mM, 3.0 h) was 54%.
With `O=C(N[C@H]1CCCNC(=O)c2cccc(c2)OC[C@@H]2C[C@H](Oc3ccccc3)CN2C1=O)OCc1ccccc1` the ring closure, yield of all isomers (from O=C(N[C@@H](CCCNC(=O)c1cccc(OC[C@@H]2C[C@H](Oc3ccccc3)CN2)c1)C(=O)O)OCc1ccccc1, HATU, HOAt, i-Pr2NEt, DMF, 0.98 mM, 25.0 °C, 20.0 h) was 88%.
With `CN1CC(=O)N2C[C@H](NC(=O)OC(C)(C)C)C[C@H]2CSc2cccc(c2)C(=O)N(C)[C@H](C(=O)OCc2ccccc2)CCC1=O` the ring closure, yield of all isomers (from CNCC(=O)N1C[C@H](NC(=O)OC(C)(C)C)C[C@H]1CSc1cccc(C(=O)N(C)[C@@H](CCC(=O)O)C(=O)OCc2ccccc2)c1, T3P, i-Pr2NEt, CH2Cl2, 10.0 mM, 25.0 °C, 3.0 h) was 57%.
`CN1C(=O)c2cc(F)ccc2OC[C@@H]2CN(C(=O)OC(C)(C)C)CCN2C(=O)CC[C@H]1C(=O)OCc1ccccc1` showed a ring closure, yield of all isomers (from CN(C(=O)c1cc(F)ccc1OC[C@@H]1CN(C(=O)OC(C)(C)C)CCN1)[C@@H](CCC(=O)O)C(=O)OCc1ccccc1, T3P, CH2Cl2, 0.57 mM, 25.0 °C, 20.0 h) of 77%.
Work on `CN1CC(=O)N2CCN(C(=O)OC(C)(C)C)C[C@@H]2COc2ccc(F)cc2C(=O)N(C)[C@@H](C(=O)OCc2ccccc2)CCC1=O` yielded a ring closure, yield of all isomers (from CNCC(=O)N1CCN(C(=O)OC(C)(C)C)C[C@@H]1COc1ccc(F)cc1C(=O)N(C)[C@H](CCC(=O)O)C(=O)OCc1ccccc1, T3P / i-Pr2NEt, CH2Cl2, 10.4 mM) of 96%.
`CN1C(=O)c2cccc(c2)OC[C@@H]2C[C@H](NC(=O)OC(C)(C)C)CN2C(=O)COC[C@H]1C(=O)OCc1ccccc1` gave a ring closure, yield of all isomers (from CN(C(=O)c1cccc(OC[C@@H]2C[C@H](NC(=O)OC(C)(C)C)CN2)c1)[C@@H](COCC(=O)O)C(=O)OCc1ccccc1, FDPP, DMF, 5.2 mM) of 80%.
With `CC(C)(C)OC(=O)N[C@H]1CCCCSc2cccc(c2)OC[C@@H]2C[C@H](OCc3ccc(Br)cc3)CN2C1=O` the ring closure, yield of all isomers (from CC(C)(C)OC(=O)N[C@@H](CCCCSc1cccc(OC[C@@H]2C[C@H](OCc3ccc(Br)cc3)CN2)c1)C(=O)O, T3P, i-Pr2NEt, CH2Cl2, 2.0 mM, 25.0 °C, 4.0 h) was 99%.
`CN1CC(=O)N2C[C@H](NC(=O)OC(C)(C)C)C[C@H]2COc2ccc(F)cc2C(=O)N(C)[C@@H](C(=O)OCc2ccccc2)CCC1=O` showed a ring closure, yield of all isomers (from CNCC(=O)N1C[C@H](NC(=O)OC(C)(C)C)C[C@H]1COc1ccc(F)cc1C(=O)N(C)[C@H](CCC(=O)O)C(=O)OCc1ccccc1, T3P / i-Pr2NEt, CH2Cl2, 5.08 mM) of 60%.
With `CN1C[C@@H](NC(=O)OCc2ccccc2)C(=O)N(C)CC(=O)N2C[C@@H](NC(=O)OC(C)(C)C)C[C@H]2COc2cccc(c2)C1=O` the ring closure, yield of all isomers (from CNCC(=O)N1C[C@@H](NC(=O)OC(C)(C)C)C[C@H]1COc1cccc(C(=O)N(C)C[C@@H](NC(=O)OCc2ccccc2)C(=O)O)c1, FDPP, DMF, 1.0 mM, 60.0 °C, 20.0 h) was 78%.
For `CN1CCCC[C@H](NC(=O)OCc2ccccc2)C(=O)N2C[C@@H](NC(=O)OC(C)(C)C)C[C@H]2COc2cncc(c2)C1=O`, the ring closure, yield of all isomers (from CN(CCCC[C@H](NC(=O)OCc1ccccc1)C(=O)O)C(=O)c1cncc(OC[C@@H]2C[C@H](NC(=O)OC(C)(C)C)CN2)c1, T3P, CH2Cl2, 4.78 mM) was 79%.
Work on `CN1C[C@H](NC(=O)OCc2ccccc2)C(=O)N(C)CC(=O)N2C[C@@H](NC(=O)OC(C)(C)C)C[C@H]2COc2cccc(c2)C1=O` yielded a ring closure, yield of all isomers (from CNCC(=O)N1C[C@@H](NC(=O)OC(C)(C)C)C[C@H]1COc1cccc(C(=O)N(C)C[C@H](NC(=O)OCc2ccccc2)C(=O)O)c1, T3P / i-Pr2NEt, CH2Cl2, 0.96 mM) of 73% and a ring closure, yield of all isomers (from CNCC(=O)N1C[C@@H](NC(=O)OC(C)(C)C)C[C@H]1COc1cccc(C(=O)N(C)C[C@H](NC(=O)OCc2ccccc2)C(=O)O)c1, T3P / i-Pr2NEt, CH2Cl2, 1.0 mM) of 39%.
Molecule `CN1C[C@H](NC(=O)OCc2ccccc2)C(=O)N(C)CC(=O)N2C[C@H](NC(=O)OCC[Si](C)(C)C)C[C@H]2COc2cccc(c2)C1=O` has a ring closure, yield of all isomers (from CN(C[C@H](NC(=O)OCc1ccccc1)C(=O)N(C)CC(=O)O)C(=O)c1cccc(OC[C@@H]2C[C@@H](NC(=O)OCC[Si](C)(C)C)CN2)c1, FDPP, DMF, 10.16 mM) of 68%.
With `CN1CCC[C@H](NC(=O)OCc2ccccc2)C(=O)N2C[C@@H](OCc3ccc(Br)cc3)C[C@H]2CSc2cccc(c2)C1=O` the ring closure, yield of all isomers (from CN(CCC[C@H](NC(=O)OCc1ccccc1)C(=O)O)C(=O)c1cccc(SC[C@@H]2C[C@H](OCc3ccc(Br)cc3)CN2)c1, T3P, CH2Cl2, 1.96 mM, 25.0 °C, 3.0 h) was 79%.
`Cc1c2c3cc(ccc3n1C)OC[C@@H]1C[C@@H](NC(=O)OC(C)(C)C)CN1C(=O)CN(C)C(=O)CC[C@@H](C(=O)OCc1ccccc1)N(C)C2=O` showed a ring closure, yield of all isomers (from CNCC(=O)N1C[C@H](NC(=O)OC(C)(C)C)C[C@H]1COc1ccc2c(c1)c(C(=O)N(C)[C@@H](CCC(=O)O)C(=O)OCc1ccccc1)c(C)n2C, T3P, CH2Cl2, 9.85 mM) of 58%.
In the case of `CN1CC(=O)N2C[C@@H](NC(=O)OC(C)(C)C)C[C@H]2COc2ccc(F)cc2C(=O)N(C)[C@@H](C(=O)OCc2ccccc2)CCC1=O`, the ring closure, yield of all isomers (from CNCC(=O)N1C[C@@H](NC(=O)OC(C)(C)C)C[C@H]1COc1ccc(F)cc1C(=O)N(C)[C@H](CCC(=O)O)C(=O)OCc1ccccc1, T3P / i-Pr2NEt, CH2Cl2, 10.8 mM) is reported as 92%.
For `CN1CC(=O)N2C[C@@H](NC(=O)OC(C)(C)C)C[C@H]2COc2ccc(F)cc2C(=O)N(C)[C@H](C(=O)OCc2ccccc2)CCC1=O`, the ring closure, yield of all isomers (from CNCC(=O)N1C[C@@H](NC(=O)OC(C)(C)C)C[C@H]1COc1ccc(F)cc1C(=O)N(C)[C@@H](CCC(=O)O)C(=O)OCc1ccccc1, FDPP, DMF, 8.44 mM, 25.0 °C, 20.0 h) was 94%.
Molecule `CN1CCC[C@H](NC(=O)OCc2ccccc2)C(=O)N2C[C@@H](NC(=O)OCC[Si](C)(C)C)C[C@H]2COc2cccc(c2)C1=O` has a ring closure, yield of all isomers (from CN(CCC[C@H](NC(=O)OCc1ccccc1)C(=O)O)C(=O)c1cccc(OC[C@@H]2C[C@H](NC(=O)OCC[Si](C)(C)C)CN2)c1, T3P, CH2Cl2, 9.4 mM) of 54%.
Molecule `CN1C(=O)c2cc(F)ccc2OC[C@@H]2C[C@H](NC(=O)OCC[Si](C)(C)C)CN2C(=O)CC[C@H]1C(=O)OCc1ccccc1` has a ring closure, yield of all isomers (from CN(C(=O)c1cc(F)ccc1OC[C@@H]1C[C@H](NC(=O)OCC[Si](C)(C)C)CN1)[C@@H](CCC(=O)O)C(=O)OCc1ccccc1, T3P, CH2Cl2, 10.0 mM, 25.0 °C, 20.0 h) of 61%.
Work on `O=C1NCCC[C@H](O)C(=O)N2C[C@@H](OCc3ccc(Br)cc3)C[C@H]2COc2cccc1c2` yielded a ring closure, yield of all isomers (from O=C(NCCC[C@H](O)C(=O)O)c1cccc(OC[C@@H]2C[C@H](OCc3ccc(Br)cc3)CN2)c1, T3P, i-Pr2NEt, CH2Cl2, 1.0 mM) of 47%.
Work on `CN1CC(=O)N2C[C@@H](NC(=O)OCC[Si](C)(C)C)C[C@H]2COc2cccc3c2C[C@@](NC(=O)OC(C)(C)C)(CC3)C(=O)N(C)C[C@H](NC(=O)OCc2ccccc2)C1=O` yielded a ring closure, yield of all isomers (from CN(CC(=O)O)C(=O)[C@H](CN(C)C(=O)[C@]1(NC(=O)OC(C)(C)C)CCc2cccc(OC[C@@H]3C[C@H](NC(=O)OCC[Si](C)(C)C)CN3)c2C1)NC(=O)OCc1ccccc1, T3P, i-Pr2NEt, CH2Cl2, 10.0 mM, 2.0 h) of 44%.
